Reference: patent publication US11236069B2, “KIF18A inhibitors” (AMGEN INC., priority 2018, dated 2022)

Target: Recombinant human KIF18A (1-467 His-tagged) protein (Homo sapiens (Human), UniProt Q8NI77)
Test: KIF18A Enzyme Assay: microtubule-stimulated ATPase activity (ADP-Glo)
Conditions: read-out: KIF18A ATPase IC50; 30 nM KIF18A, 30 μg/mL pig microtubules, ATP at Km 75 μM, ADP-Glo luminescence
Text: KIF18A Enzyme Assay: Microtubule-stimulated ATPase activity assay is used to measure KIF18A enzyme activity after treatment with compound. Compounds were 2-fold serially diluted in DMSO (Sigma Inc) over 22-point concentration range. […] The assay measures ADP formed from the ATPase reaction.

Sequence of Recombinant human KIF18A (1-467 His-tagged) protein (Q8NI77 1-467): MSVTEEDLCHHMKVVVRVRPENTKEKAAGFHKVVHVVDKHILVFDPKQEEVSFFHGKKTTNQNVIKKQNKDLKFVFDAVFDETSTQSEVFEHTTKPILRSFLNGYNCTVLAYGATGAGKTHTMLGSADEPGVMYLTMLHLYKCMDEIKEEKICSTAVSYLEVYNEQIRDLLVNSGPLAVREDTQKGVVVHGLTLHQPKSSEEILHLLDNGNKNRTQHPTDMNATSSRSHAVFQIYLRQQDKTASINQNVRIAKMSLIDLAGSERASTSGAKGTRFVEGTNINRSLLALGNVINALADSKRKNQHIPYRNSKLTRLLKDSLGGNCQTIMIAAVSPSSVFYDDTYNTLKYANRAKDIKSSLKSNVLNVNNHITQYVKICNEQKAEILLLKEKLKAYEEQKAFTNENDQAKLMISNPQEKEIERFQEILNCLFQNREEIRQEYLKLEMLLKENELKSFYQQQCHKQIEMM
Sequence of Recombinant human KIF18A (1-467 His-tagged) protein (P02550 whole entry partner): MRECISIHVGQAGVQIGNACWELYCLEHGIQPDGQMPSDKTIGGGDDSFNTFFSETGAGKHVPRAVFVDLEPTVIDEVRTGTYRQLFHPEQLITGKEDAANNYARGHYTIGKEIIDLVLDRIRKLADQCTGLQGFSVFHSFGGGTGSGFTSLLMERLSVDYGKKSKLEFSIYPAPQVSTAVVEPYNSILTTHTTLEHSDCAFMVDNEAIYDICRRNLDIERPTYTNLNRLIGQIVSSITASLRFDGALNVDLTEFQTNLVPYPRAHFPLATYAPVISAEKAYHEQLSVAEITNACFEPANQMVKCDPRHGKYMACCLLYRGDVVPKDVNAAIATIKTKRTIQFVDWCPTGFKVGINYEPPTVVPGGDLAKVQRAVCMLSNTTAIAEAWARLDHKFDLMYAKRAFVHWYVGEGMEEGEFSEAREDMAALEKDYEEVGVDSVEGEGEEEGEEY
Sequence of Recombinant human KIF18A (1-467 His-tagged) protein (P02554 whole entry partner): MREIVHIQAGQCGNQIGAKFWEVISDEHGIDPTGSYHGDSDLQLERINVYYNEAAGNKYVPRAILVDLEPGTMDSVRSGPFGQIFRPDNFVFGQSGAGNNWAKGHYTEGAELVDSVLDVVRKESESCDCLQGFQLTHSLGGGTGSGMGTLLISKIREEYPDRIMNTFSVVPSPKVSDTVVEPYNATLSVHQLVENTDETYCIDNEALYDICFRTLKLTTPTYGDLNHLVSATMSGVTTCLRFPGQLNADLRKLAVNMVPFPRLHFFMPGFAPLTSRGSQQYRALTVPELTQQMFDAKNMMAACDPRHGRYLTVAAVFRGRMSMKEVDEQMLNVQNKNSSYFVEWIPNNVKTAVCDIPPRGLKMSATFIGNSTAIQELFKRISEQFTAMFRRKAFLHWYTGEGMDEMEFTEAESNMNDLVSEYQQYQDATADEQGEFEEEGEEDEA

Structure (SMILES)	IC50 [nM]
Cc1cc(NC(=O)c2ccc(NS(=O)(=O)CCO)cc2N2CCC3(CC2)CC3)nc(N2CCC3(CC3)C2)n1 [Example 11-25, 4-((2-Hydroxyethyl)sulfonamido)-N-(6-methyl-2-(5-azaspiro[2.4]heptan-5-yl)pyrimidin-4-yl)-2-(6-azaspiro[2.5]octan-6-yl)benzamide]	17.6
Cc1cc(NC(=O)c2ccc(NS(=O)(=O)CCO)cc2N2CCC3(CC2)CC3)nc(N2CC[C@@](C)(F)C2)n1 [Example 11-27, (R)-N-(2-(3-Fluoro-3-methylpyrrolidin-1-yl)-6-methylpyrimidin-4-yl)-4-((2-hydroxyethyl)sulfonamido)-2-(6-azaspiro[2.5]octan-6-yl)benzamide]	20
Cc1cc(NC(=O)c2ccc(S(=N)(=O)C3COC3)cc2N2CCC3(CC2)CC3)nc(N2CCC(F)(F)CC2)n1 (stereo not drawn) [Example 19-1, N-(2-(4,4-Difluoropiperidin-1-yl)-6-methylpyrimidin-4-yl)-4-(oxetane-3-sulfonimidoyl)-2-(6-azaspiro[2.5]octan-6-yl)benzamide]	163
Cc1cc(NC(=O)c2ccc(NS(=O)(=O)CCO)cc2N2CCC3(CC2)CC3)nc(N2CCC[C@H](C#N)C2)n1 [Example 11-35, (S)-N-(2-(3-Cyanopiperidin-1-yl)-6-methylpyrimidin-4-yl)-4-((2-hydroxyethyl)sulfonamido)-2-(6-azaspiro[2.5]octan-6-yl)benzamide]	43
Cc1cc(NC(=O)c2ccc(NS(=O)(=O)C3CCCC3)cc2N2CCC3(CC2)CC3)nc(N2CCC(F)(F)CC2)n1 [Example 6-10, 4-(Cyclopentanesulfonamido)-N-(2-(4,4-difluoropiperidin-1-yl)-6-methylpyrimidin-4-yl)-2-(6-azaspiro[2.5]octan-6-yl)benzamide]	2420
Cc1cc(NC(=O)c2ccc(NS(=O)(=O)CCO)cc2N2CCC3(CC2)CC3)nc(N2CCO[C@@H](C)C2)n1 [Example 11-45, (S)-4-((2-Hydroxyethyl)sulfonamido)-N-(6-methyl-2-(2-methylmorpholino)pyrimidin-4-yl)-2-(6-azaspiro[2.5]octan-6-yl)benzamide]	35
Cc1cc(NC(=O)c2ccc(NS(=O)(=O)CCO)cc2N2CCC3(CCC3)CC2)nc(N2CCC(F)(F)CC2)n1 [Example 11-40, N-(2-(4,4-Difluoropiperidin-1-yl)-6-methylpyrimidin-4-yl)-4-((2-hydroxyethyl)sulfonamido)-2-(7-azaspiro[3.5]nonan-7-yl)benzamide]	109
Cc1cc(NC(=O)c2ccc(NS(=O)(=O)CCO)cc2N2CCC3(CC2)CC3)nc(N2CC(F)(F)C2)n1 [Example 7, N-(2-(3,3-Difluoroazetidin-1-yl)-6-methylpyrimidin-4-yl)-4-((2-hydroxyethyl)sulfonamido)-2-(6-azaspiro[2.5]octan-6-yl)benzamide]	23
Cc1cc(NC(=O)c2ccc(S(=O)(=O)NC3(C)COC3)cc2N2CCC3(CC2)CC3)nc(OCCC(F)(F)F)n1 [Example 1-6, N-(6-Methyl-2-(3,3,3-trifluoropropoxy)pyrimidin-4-yl)-4-(N-(3-methyloxetan-3-yl)sulfamoyl)-2-(6-azaspiro[2.5]octan-6-yl)benzamide]	32
Cc1cc(NC(=O)c2cc(F)c(NS(=O)(=O)[C@@H](C)CO)cc2N2CCC3(CC2)CC3)nc(N2CCC(F)(F)CC2)n1 (single isomer, unassigned) [Example 8-2]	73
Cc1cc(NC(=O)c2ccc(NS(C)(=O)=O)cc2N2CCC3(CC2)CC3)nc(N2CCC(F)(F)CC2)n1 [Example 6-21, N-(2-(4,4-Difluoropiperidin-1-yl)-6-methylpyrimidin-4-yl)-4-(methylsulfonamido)-2-(6-azaspiro[2.5]octan-6-yl)benzamide]	39
Cc1cc(NC(=O)c2ccc(NS(=O)(=O)C(C)C)cc2N2CCC3(CC2)CC3)nc(N2CC(F)(F)C2)n1 [Example 11-75, N-(2-(3,3-Difluoroazetidin-1-yl)-6-methylpyrimidin-4-yl)-4-((1-methylethyl)sulfonamido)-2-(6-azaspiro[2.5]octan-6-yl)benzamide]	56
Cc1cc(NC(=O)c2ccc(S(=O)(=O)NC3(C)COC3)cc2N2CCC3(CC2)CC3)nc(C(C)(C)O)n1 [Example 2-1, N-(2-(2-Hydroxypropan-2-yl)-6-methylpyrimidin-4-yl)-4-(N-(3-methyloxetan-3-yl)sulfamoyl)-2-(6-azaspiro[2.5]octan-6-yl)benzamide]	65
Cc1cc(NC(=O)c2ccc(NS(=O)(=O)CCO)cc2N2CCC3(CC2)CC3)nc(N2CCC[C@@H](C#N)C2)n1 [Example 11-34, (R)-N-(2-(3-Cyanopiperidin-1-yl)-6-methylpyrimidin-4-yl)-4-((2-hydroxyethyl)sulfonamido)-2-(6-azaspiro[2.5]octan-6-yl)benzamide]	92
CCc1cc(NC(=O)c2ccc(NS(=O)(=O)CCO)cc2N2CCC3(CC2)CC3)nc(N2CCC(F)(F)CC2)n1 [Example 6-38, N-(2-(4,4-Difluoropiperidin-1-yl)-6-ethylpyrimidin-4-yl)-4-((2-hydroxyethyl)sulfonamido)-2-(6-azaspiro[2.5]octan-6-yl)benzamide]	60
Cc1cc(NC(=O)c2ccc(NS(=O)(=O)CCO)cc2N2CCC3(CC2)CC3)nc(N2CC(C(C)(C)O)C2)n1 [Example 11-14, 4-((2-Hydroxyethyl)sulfonamido)-N-(2-(3-(2-hydroxypropan-2-yl)azetidin-1-yl)-6-methylpyrimidin-4-yl)-2-(6-azaspiro[2.5]octan-6-yl)benzamide]	172
Cc1cc(NC(=O)c2ccc(NS(=O)(=O)CCO)cc2N2CCC3(CC2)CC3)nc(N2CC[C@H]3C[C@H]3C2)n1 [Example 11-43, N-(2-((1R,6R)-3-Azabicyclo[4.1.0]heptan-3-yl)-6-methylpyrimidin-4-yl)-4-((2-hydroxyethyl)sulfonamido)-2-(6-azaspiro[2.5]octan-6-yl)benzamide]	35
Cc1cc(NC(=O)c2ccc(S(=O)(=O)C3CNC3)cc2N2CCC3(CC2)CC3)nc(N2CCC(F)(F)CC2)n1 [Example 21, 4-(Azetidin-3-ylsulfonyl)-N-(2-(4,4-difluoropiperidin-1-yl)-6-methylpyrimidin-4-yl)-2-(6-azaspiro[2.5]octan-6-yl)benzamide]	40
Cc1cc(NC(=O)c2ccc(NS(=O)(=O)[C@H]3CCOC3)cc2N2CCC3(CC2)CC3)nc(N2CC(F)(F)C2)n1 [Example 11-70, (S)-N-(2-(3,3-Difluoroazetidin-1-yl)-6-methylpyrimidin-4-yl)-2-(6-azaspiro[2.5]octan-6-yl)-4-((tetrahydrofuran)-3-sulfonamido)benzamide]	72
Cc1cc(NC(=O)c2ccc(S(=O)(=O)C3COC3)cc2N2CCC3(CC2)CC3)nc(N2CCC(F)(F)CC2)n1 [Example 14-1, N-(2-(4,4-Difluoropiperidin-1-yl)-6-methylpyrimidin-4-yl)-4-(oxetan-3-ylsulfonyl)-2-(6-azaspiro[2.5]octan-6-yl)benzamide]	182
Cc1cc(NC(=O)c2ccc(NS(=O)(=O)CCO)cc2N2CCC3(CC2)CC3)nc(OC(C)C)n1 [Example 11-79, 4-((2-Hydroxyethyl)sulfonamido)-N-(2-isopropoxy-6-methylpyrimidin-4-yl)-2-(6-azaspiro[2.5]octan-6-yl)benzamide]	57
